The nature of data set [1]: Plasma stability, quantitative LC-MS (Method #2). It counts as in vitro ADME, mouse. Conditions: ex vivo mouse plasma at 37° C., Method #2 (FIG. 1, FIG. 3A); read-out: half-life of the peptide in mouse plasma (converted). As to the method:
To obtain plasma stability of bicyclic peptides quantitatively, peptide stock solutions (200 μM in DMSO) were mixed with plasma (human or mouse), such that final concentrations were 10 μM. 40 μL samples were taken periodically up to 8 hrs and frozen at −80° C. Prior to LC-MS analysis, samples were defrosted, and mixed with 3 volumes (here, 120 μL) of 1:1 acetonitrile/MeOH water. The milky suspensions were centrifuged for 30 min at 13000 rpm, and peptide-containing supernatants were quantitated for doubly/triply charged species and MS/MS fragments thereof using a Waters Xevo TQ-D instrument, while using a plasma extracted standard curve of the same peptides as a reference. The half-life of degradation in plasma was used to assess the comparative stability of the molecules.

Data set [2] can be described thus: Plasma stability, quantitative LC-MS (Method #2). In kind it is in vitro ADME, human. Conditions: human, human plasma, 37° C.; sentence prints mouse plasma; read-out: half-life of the peptide in plasma (FIG. 3B, human plasma stability) (converted). The procedure:
[…] […] Prior to LC-MS analysis, samples were defrosted, and mixed with 3 volumes (here, 120 μL) of 1:1 acetonitrile/MeOH water. The milky suspensions were centrifuged for 30 min at 13000 rpm, and peptide-containing supernatants were quantitated for doubly/triply charged species and MS/MS fragments thereof using a Waters Xevo TQ-D instrument, while using a plasma extracted standard curve of the same peptides as a reference. The half-life of degradation in plasma was used to assess the comparative stability of the molecules.

Data set [3] deals with HT-1080 xenograft tumours. Put plainly: Efficacy in HT-1080 xenograft mice. It counts as in vivo, mouse. Conditions: HT1080 xenograft. As to the method: Balb/c nude mice bearing subcutaneous HT-1080 xenograft tumours were treated with BDCs or vehicle (PBS). BDCs were dosed 3 times weekly for 2 weeks, dosing initiated when tumours measured approx. 150-200 mm^3. Mice were monitored, and measurements of tumour volume and body weight recorded 3 times a week.

From patent US11672868B2, “Bicyclic peptide ligands specific for MT1-MMP” (priority 2014, dated 2023) come the findings set out here.

Structures are written as SMILES. Where two headings read alike, the source gives them in different places. Numbered stars: 1 amine (or outer) side, 2 acyl side, 3 side chain; on linkers, the order of the positions; unused ones are H or OH. Bridge positions count the residues as written; N and C are the ends. Square brackets hold non-standard residues; d marks the D form. Peptide text beside a SMILES is read from it. I, II: the chains in the order shown. * marks the point of attachment. Dolaproine = CO[C@@H]([C@@H]1CCCN1)[C@@H](C)C(=O)O; Dil = CC[C@H](C)[C@H](NC)[C@@H](CC(=O)O)OC; Phe(4-Br) = N[C@@H](Cc1ccc(Br)cc1)C(=O)O; 1Nal = N[C@@H](Cc1cccc2ccccc12)C(=O)O; TBMB = c1c(C[*:1])cc(C[*:3])cc1C[*:2]; PABC = O=C(OCc1ccc(N[*:1])cc1)[*:2]; Glutaryl = O=C(CCCC(=O)[*:2])[*:1]; X4 = C[C@@H](N*)[C@@H](O)c1ccccc1; Cit = NC(=O)NCCC[C@H](N)C(=O)O; Tle = CC(C)(C)[C@H](N)C(=O)O; NMeV = CN[C@H](C(=O)O)C(C)C; Sar = CNCC(=O)O

Broadly, the half-life is how long it takes for the measured level to halve.

As for `C[C@H](NC(=O)CN(C)C(=O)CN(C)C(=O)CN(C)C(=O)CN(C)C(=O)CN(C)C(=O)CN(C)C(=O)CN(C)C(=O)CN(C)C(=O)CN(C)C(=O)CN(C)C(=O)CN)C(=O)N[C@H]1CSCc2cc3cc(c2)CSC[C@H](NC(=O)[C@@H](C)NC(=O)[C@H](Cc2cccc4ccccc24)NC(=O)[C@H](CCC(=O)O)NC(=O)[C@H](CC(N)=O)NC(=O)[C@@H](C)NC1=O)C(=O)N[C@@H](CCC(=O)O)C(=O)N[C@@H](CC(=O)O)C(=O)N[C@@H](Cc1ccccc1)C(=O)N[C@@H](Cc1ccc(O)cc1)C(=O)N[C@@H](CC(=O)O)C(=O)N[C@@H](C(C)(C)C)C(=O)N[C@H](C(N)=O)CSC3` [17-69-07-N231, G-Sar10-A-(17-69-07) D-Ala1 1Nal4 D-Ala5 tBuGly11] (H-G[Sar][Sar][Sar][Sar][Sar][Sar][Sar][Sar][Sar][Sar]AC[dA]NE[1Nal][dA]CEDFYD[Tle]C-NH2; linker 13-19-26 via TBMB; C-terminus assumed), the half-life at 10 μM in data set [1] and in data set [2] was more than 20 h each time.

`C[C@H](NC(=O)CN(C)C(=O)CN(C)C(=O)CN(C)C(=O)CN(C)C(=O)CN(C)C(=O)CN(C)C(=O)CN(C)C(=O)CN(C)C(=O)CN(C)C(=O)CN(C)C(=O)CN)C(=O)N[C@H]1CSCc2cc3cc(c2)CSC[C@H](NC(=O)[C@@H](C)NC(=O)[C@H](Cc2cccc4ccccc24)NC(=O)[C@H](CCC(=O)O)NC(=O)[C@H](CC(N)=O)NC(=O)[C@@H](C)NC1=O)C(=O)N[C@@H](CCC(=O)O)C(=O)N[C@@H](CC(=O)O)C(=O)N[C@@H](Cc1ccccc1)C(=O)N[C@@H](Cc1ccc(Br)cc1)C(=O)N[C@@H](CC(=O)O)C(=O)N[C@@H](C(C)(C)C)C(=O)N[C@H](C(N)=O)CSC3` [17-69-07-N244, G-Sar10-A-(17-69-07) D-Ala1 1Nal4 D-Ala5 4BrPhe9 tBuGly11] (H-G[Sar][Sar][Sar][Sar][Sar][Sar][Sar][Sar][Sar][Sar]AC[dA]NE[1Nal][dA]CEDF[Phe(4-Br)]D[Tle]C-NH2; linker 13-19-26 via TBMB; C-terminus assumed): the half-life at 10 μM in data set [1] and in data set [2] was more than 20 h throughout.

As for `CC[C@H](C)[C@@H]([C@@H](CC(=O)N1CCC[C@H]1[C@H](OC)[C@@H](C)C(=O)N[C@H](C)[C@@H](O)c1ccccc1)OC)N(C)C(=O)[C@@H](NC(=O)[C@H](C(C)C)N(C)C(=O)OCc1ccc(NC(=O)[C@H](CCCNC(N)=O)NC(=O)[C@@H](NC(=O)CCCC(=O)NCC(=O)N(C)CC(=O)N(C)CC(=O)N(C)CC(=O)N(C)CC(=O)N(C)CC(=O)N(C)CC(=O)N(C)CC(=O)N(C)CC(=O)N(C)CC(=O)N(C)CC(=O)N[C@@H](C)C(=O)N[C@H]2CSCc3cc4cc(c3)CSC[C@H](NC(=O)CNC(=O)[C@H](Cc3ccccc3)NC(=O)[C@H](CCC(=O)O)NC(=O)[C@H](CC(N)=O)NC(=O)[C@H](Cc3ccc(O)cc3)NC2=O)C(=O)N[C@@H](CCC(=O)O)C(=O)N[C@@H](CC(=O)O)C(=O)N[C@@H](Cc2ccccc2)C(=O)N[C@@H](Cc2ccc(O)cc2)C(=O)N[C@@H](CC(=O)O)C(=O)N[C@@H]([C@@H](C)CC)C(=O)N[C@H](C(N)=O)CSC4)C(C)C)cc1)C(C)C` [BT17BDC-1] (I: G[Sar][Sar][Sar][Sar][Sar][Sar][Sar][Sar][Sar][Sar]ACYNEFGCEDFYDIC-NH2 / II: V[Cit][PABC][NMeV]V[Dil][Dolaproine]-X4; linker I:13-I:19-I:26 via TBMB; linker I:N-II:N via Glutaryl), the “weight of the animals during treatment” value in data set [3] is recorded as “largely stable”.
